In patent US20250134953A1, “COMPOSITIONS FOR TREATING AUTOIMMUNE ARTHRITIS” (DEVINTEC SAGL, priority 2021, published 2025):

Experiments:
[1] = tested on: IL-17, IL-6, IL-23, TNF-α and IL-1β; details: CAIA mice; prednisolone at high doses (group 14); combination groups 13 and 15; FIGS. 1-2
Protocol: The mAb cocktail contained three mAb (F10, A2, D8) of type IgG2a and one mAb (D1) of type IgG2b in equal amounts, directed to bovine CII (Arthrogen-CIA, Chondrex) suspended in sterile PBS. All WT mice received intraperitnoeal i.p. injections of 8 mg/mouse of Arthrogen on day 0 and 50 ug/mouse of LPS from E. coli strain 0111B4 (Sigma, T 3382) on day 3 to synchronize the development of arthritis. All mice started to develop arthritis at day 4 and were sacrificed at day 14.
Animals from group A and B were separated in some the following subgroups, depending on the assay, and administered with the indicated compounds or combination of compounds: • 1. Sham+vehicle (negative control) (n=3) • 2. Sham+prednisolone 0.05 mg/kg (n=3) • 3. Sham+prednisolone 0.05 mg/kg +MD (50 mg acacia gum (AG) +70 mg pea protein (PP)+50 mg alpha-GOS) (n=3) • 4. Sham+prednisolone 0.2 mg/kg (n=3) • 5. Sham+prednisolone 0.2 mg/kg+MD (50 mg AG+70 mg PP+50 mg alpha-GOS) (n=3) • 6. Sham+prednisolone 1 mg/kg (n=3) • 7. Sham+prednisolone 1 mg/kg+MD (50 mg AG+70 mg PP+50 mg alpha-GOS) (n=3) • 8. Sham+MD (n=3) • 9. CAIA+vehicle (positive control) (n=6) • 10. CAIA+prednisolone 0.05 mg/kg (n=6) • 11. CAIA+prednisolone 0.05 mg/kg+MD (50 mg AG+70 mg PP+50 mg alpha-GOS) (n=6) • 12. CAIA+prednisolone 0.2 mg/kg (n=6) • 13. CAIA+prednisolone 0.2 mg/kg (n=6)+MD (50 mg AG+70 mg PP+50 mg alpha-GOS) (n=6) • 14. […]

[2] = tested on: collagen antibody-induced arthritis (CAIA) mice; test: Histological score of ankle joints (hind legs) in CAIA mice; type: in vivo, Male BALB/c mice; details: oral gavage
Protocol: (§1) Each compound (140 mg of pea protein; 100 mg of Acacia gum; and 100 mg of alpha-Glucooligosaccharide) were administered in a PBS solution via oral gavage daily, from day 0 to day 14 in mice of Group A, and from day 4 to day 14 in mice of Group B. Prednisolone was administered via oral gavage at the doses of 0.05, 0.2 and 1 mg/kg as disclosed in Oosten, L., Helsen, M., Saxne, T. et al. “Synergistic protection against cartilage destruction by low dose prednisolone and interleukin-10 in established murine collagen arthritis”. Inflamm. Res. 48, 48-55, 1999.
(§2) The animals were divided into the following two groups: • Group A: the animals were administered with the therapeutic compounds from day 0 to day 14. • Group B: the animals were administered with the therapeutic compounds from day 4 to day 14.
(§3) Sham+vehicle (negative control) (n=3) • 2. Sham+prednisolone 0.05 mg/kg (n=3) • 3. […] Sham+prednisolone 0.2 mg/kg (n=3) • 5. […] Sham+prednisolone 1 mg/kg (n=3) • 7. […] Sham+MD (n=3) • 9. CAIA+vehicle (positive control) (n=6) • 10. CAIA+prednisolone 0.05 mg/kg (n=6) • 11. […] CAIA+prednisolone 0.2 mg/kg (n=6) • 13. […] CAIA+prednisolone 1 mg/kg (n=6) • 15. […] CAIA+140 mg Pea Protein (n=6) • 18. […] CAIA+200 mg Pea Protein (n=6) • 20. […] CAIA+70 mg Pea Protein (n=6)
Histological analysis was carried out as previously described (Balkrishna A, et al., supra; Mengdi et al., “A novel dexamethasone-loaded liposome alleviates rheumatoid arthritis in rats”; International Journal of Pharmaceutics; 2018; vol. 540(1-2); pp. 57-64) and indicating score analysis of the RA disease-associated lesions such as the moderately enlarged synovial membrane, hyperplastic synovium, the presence of inflammation and bone and cartilage erosion on a 0-4 scale as follows: 0=normal; 1=mild, slight swelling; 2=moderate swelling; 3=severe swelling; 4=maximally inflamed; […].
Histopathological analysis of the CAIA mice hind legs was performed following fourteen days of treatment. Ankle-joints analysis of the CAIA mice was performed indicating the development of arthritis disease-associated lesions such as the moderately enlarged synovial membrane, hyperplastic synovium, increased synovial vascularity, the presence of inflammation and, bone and cartilage erosion.

[3] = tested on: collagen antibody-induced arthritis (CAIA) mice; test: Radiological score (X-ray) of ankle joints in CAIA mice; type: in vivo, Male BALB/c mice; details: oral gavage, score 0-3
Protocol: as §1, §2, §3
Radiological analysis was carried out using X-ray technique, and radio-logical scoring (level: 0=Normal; 1=Slight; 2=Moderate and 3=Severe) was calculated considering different parameters such as periosteal reaction/hypertrophy, bone erosion, soft tissue swelling, narrowed joint space and osteoporosis in the ankle-joints, as described in Balkrishna A, et al., “Herbo-mineral formulation ‘Ashwashila’ attenuates rheumatoid arthritis symptoms in collagen-antibody-induced arthritis (CAIA) mice model” Sci Rep., 2019; vol. 9(1); pp. 8025.

[4] = group A (dosed day 0 to day 14), subgroup 10A: prednisolone 0.05 mg/kg
[5] = group A (dosed day 0 to day 14), subgroup 12A: prednisolone 0.2 mg/kg
[6] = group A (dosed day 0 to day 14), subgroup 14A: prednisolone 1 mg/kg
[7] = group B (dosed day 4 to day 14), subgroup 10B: prednisolone 0.05 mg/kg
[8] = group B (dosed day 4 to day 14), subgroup 12B: prednisolone 0.2 mg/kg
[9] = group B (dosed day 4 to day 14), subgroup 14B: prednisolone 1 mg/kg

C[C@]12C=CC(=O)C=C1CC[C@@H]1[C@@H]2[C@@H](O)C[C@@]2(C)[C@H]1CC[C@]2(O)C(=O)CO [prednisolone]
cytokine levels (IL-17, IL-6, IL-23, TNF-α and IL-1β) in arthritic hind paws [1]: significantly reduced the expressions of the aforementioned cytokines | Histological score, MEAN [2, 4]: 1.8 | Histological score, MEAN [2, 5]: 1.3 | Histological score, MEAN [2, 6]: 1.1 | Histological score, MEAN [2, 7]: 2.4 | Histological score, MEAN [2, 8]: 1.8 | Histological score, MEAN [2, 9]: 1.9 | Radiological score, MEAN [3, 4]: 2.3 | Radiological score, MEAN [3, 5]: 1.8 | Radiological score, MEAN [3, 6]: 1.7 | Radiological score, MEAN [3, 7]: 2.6 | Radiological score, MEAN [3, 8]: 1.9 | Radiological score, MEAN [3, 9]: 1.8
